The source of these data is US8367069B2, “Cytotoxic T cell defined EGFR peptide and an optimized derivative peptide” (University of Pittsburgh—of the Commonwealth System of …, priority 2008, dated 2013).

The subject of one assay is T2 cells. The assay can be described thus: IFN-γ ELISPOT, CTL recognition of polypeptide pulsed T2 cells. It is filed as cell-based, human. The note with it: T2 cells pulsed with the polypeptide; 10 μg/ml at 37° C. The method, then:
In vitro stimulation (IVS) was performed using EGFR853-861 (i.e., SEQ ID NO: 1, wherein the residue at position 2 is threonine) or EGFR853-861L (i.e., SEQ ID NO: 1, wherein the residue at position 2 is leucine) to induce cytotoxic T lymphocytes (CTL) using CD8+PBMC from five HLA-A*0201^+ healthy donors and one head and neck squamous cell carcinoma (SCCHN) patient. The resulting EGFR-specific CTL were tested for EGFR853-861 specificity and HLA class I antigen restriction using polypeptide pulsed T2 cells. CTL generated against EGFR853-861 polypeptide recognized T2 cells pulsed with either EGFR853-861 or EGFR853-861L polypeptide, but not T2 cells alone or T2 cells incubated with the HIV Pol476-484 polypeptide (10 μg/ml at 37° C.) (see FIGS. 6A and 6B). […]
PBMCs were isolated by density centrifugation on Ficoll-Paque™ PLUS (GE Healthcare Bio-Science AB; SE-751 84 Uppsala) and used to prepare mature DCs using methods described in the art. […] The stimulated CD8^+ T cells were analyzed for specificity in IFN-γ ELISPOT and ^51Cr release assays at day 21 and then every 7 days thereafter.
The recognition of APCs pulsed with polypeptide (EGFR853-861 or EGFR853-861L) and head and neck tumor cells was assessed by ELISPOT assays specific for hu-IFN-γ. […]

The next assay concerns PCI-30. The assay can be described thus: IFN-γ ELISPOT, stimulated CD8+ T cells against PCI-30 head and neck tumor cells. It is filed as cell-based, human. The note with it: substance added to CTL plus PCI-30 cells.
The subject of a further assay is EGFR family. The assay can be described thus: Cross-reactivity of polypeptide-derived CTL. It is filed as cell-based, human.
A further assay has as its target HLA-A*0201 (Homo sapiens, UniProt P04439, D140Y/D185E/D98H/E176V/E277Q/G131W/G231S/I119V/I121R/I166T/I218V/L300P/L318F/N151K/N90K/P208A/P217A/Q86G/Q94H/R138H/R169H/T345S). The note with it: cited from earlier work.

Procedure for PCI-30: PBMCs were isolated by density centrifugation on Ficoll-Paque™ PLUS (GE Healthcare Bio-Science AB; SE-751 84 Uppsala) and used to prepare mature DCs using methods described in the art. PBMCs were resuspended at 5×10^7/ml in AIM-V medium (Invitrogen) and were incubated for 90 min in 75-cm^2 tissue culture flasks or six-well plates (37° C.; 5% CO2). Non-adherent (T cell-enriched) cells were gently washed out with HBSS and subsequently frozen. The plastic adherent cells were cultured in AIM-V medium supplemented with 1000 units/ml rhGM-CSF and 1000 units/ml rhIL-4. […] The stimulated CD8^+ T cells were analyzed for specificity in IFN-γ ELISPOT and ^51Cr release assays at day 21 and then every 7 days thereafter.
After incubation at 37° C. in 5% CO2 for 40 hours (IFN-γ ELISPOT assays), cells were removed by washings with PBS-0.05% Tween 20 (PBS-T). Captured cytokine was detected at sites of its secretion by incubation for 4 hours with biotinylated mAb anti-hIFN-γ (7-B6-1; Mabtech) at 2 μg/ml in PBS-0.5% BSA. […] Spot numbers and spot sizes were automatically determined with the use of computer-assisted video image analysis.

Regarding “HIV Pol476-484: negative control peptide (AGADRQGTV; UniProt P04585 476-484, looked up, fragment)”, the “recognition of polypeptide pulsed T2 cells by CTL generated against EGFR853-861” value in the assay with T2 cells is “not”. panitumumab: the “change in IFN-γ spots on addition to CTLs (stimulated with EGFR853-861) and PCI-30 cells” value in the assay with PCI-30 is “increased”. As to ITDFGLARL [HER2861-869], the “cross-reactivity of CTL derived from the polypeptide” value in the assay with EGFR family is “demonstrated cross-reactivity”. Besides, in the assay with HLA-A*0201, the “HLA-A*0201 binding” value was “binds”.
